Experimental data as given in patent US12156861B2, “Pharmaceutical composition for treating kidney cancer and application thereof” (SICHUAN JIUZHANG BIOLOGICAL SCIENCE AND TECHNOLOGY CO., LTD., priority 2018, dated 2024).
Read-outs that look alike come from different tables or passages of the source.

Columns and labels:
[1] = test system: transplanted tumor RuCa in mice; assay: Inhibitory effect on transplanted tumor RuCa in mice; format: in vivo, mouse; conditions: for Tumor inhibition rate (%) / Body weight 15 d after administration / Tumor weight: 30 mg/kg ip once a day, 15 times; for Body weight 15 d after administration / Tumor weight / Body weight Before administration: x ± SD, n = 10; for Body weight Before administration: baseline
Description: Mouse renal cancer cell lines RuCa were established by subcutaneously inoculating in mouse axillary. The number of cells inoculated was 1×10^7, and after inoculation formed transplanted tumor, the cells were passaged in mice for 3 generations for use.
• 80 BABL/C-nu mice, half male and half female, weighing 18-22 g; 2 Experimental Method 2.1 Route of Administration
intraperitoneal injection (ip)
The tumor tissue in vigorous growth stage was cut into about 1.5 mm^3 and homogenized under aseptic conditions to prepare 1×10^7/ml cell suspension. 80 mice of the above specifications were inoculated subcutaneously in the right armpit with 0.1 ml cell suspension. On the second day after inoculation, the mice were weighed and randomly divided into 8 groups, with 10 mice in each group, that were test drug 1 group, test drug 2 group, test drug 3 group, test drug 4 group, test drug 5 group, test drug 6 group, test drug 7 group, and negative control group. The test drug group was administrated by intraperitoneal injection (ip), 30 mg/kg/time, once a day, and the administration was successively performed 15 times. The negative group was intraperitoneally injected with the same dose of normal saline, once a day, and the mice were weighed before administration.
At the end of administration, the experiment was stopped, and the mice were killed by cervical dislocation and weighed. The tumor was stripped, and the tumor inhibition rate was calculated.

[2] = test system: human renal cancer cell lines A498; assay: WST-1 growth inhibition of human renal cancer cell line A498 in vitro; format: cell-based; conditions: for Observation of cell morphology / effect on cell growth: inverted microscope, compared with negative control; for inhibition at 15 µg/mL: final concentration 15 μg/ml; for inhibition at 60 µg/mL: final concentration 60 μg/ml; for OD value (average): WST-1, absorption at 440 nm
Protocol: (§1) Human kidney cancer cell line A498 and mouse kidney cancer cell line RuCa; the cells were passaged prior to use, and the cells that were in a good growth state and in log phase growth were selected for use.
(§2) Then, the cells were suspended in complete medium, and the cell concentration was adjusted to 6×10^4/ml. The cells were seeded in 96 well plates at 50 μl/well […], and three multiple wells were set up for each drug concentration.
(§3) On the next day after inoculation, once cells were adherent to the wall, the drugs were added according to the following groups and then incubated for 48 h.
The storage solution of each drug was prepared into 60 μg/ml with complete medium for use; the complete medium of each test drug mentioned above (50 μl) was placed in the 96-well plate inoculated cells, […], three wells for each concentration.
Then, 10 μl WST-1 solution was added into the wells of above drug groups, negative control group, and blank control group. […]
In order to objectively evaluate the synergistic effect of the combination of the three compounds, according to the standard proposed in the non patent literature Chou T C. Theoretical basis, experimental design, and computerized simulation of synergism and antagonism in drug combination studies. [J].
A, B and C denote the doses of three components in the pharmaceutical composition; Ae, Be, and Ce denote the dose of a single component required to achieve the tumor inhibition efficiency of the pharmaceutical composition when using a single compound alone. […] The smaller the CI value is, the stronger the synergistic effect is.

[3] = test system: mouse renal cancer cell lines RuCa; assay: WST-1 growth inhibition of mouse renal cancer cell line RuCa in vitro; format: cell-based; conditions: for Observation of cell morphology / effect on cell growth / inhibition at 30 µg/mL / OD value (average): 48 h; for Observation of cell morphology / effect on cell growth: inverted microscope, compared with negative control; for Inhibition rate (%): Comparative Example 1, method of Experimental Example 1; for inhibition at 30 µg/mL: Mus musculus, read-out: Inhibition rate (%); for inhibition at 30 µg/mL / OD value (average): final concentration 30 μg/ml; for OD value (average): WST-1, absorption at 440 nm
Protocol: as §1, §2, §3
The storage solution of each drug was prepared into 60 μg/ml with complete medium for use; the complete medium of each test drug mentioned above (50 μl) was placed in the 96-well plate inoculated cells, and the final concentration of each group was 30 μg/ml, three wells for each concentration.
Then, 10 μl WST-1 solution was added into the wells of above drug groups, negative control group, and blank control group. After the cells were incubated in 37° C. incubator for 4 h, the absorption values of different drug groups, negative control group and blank control group were measured at 440 nm by μ-Quant microplate analyzer.

[4] = Homo sapiens, A498, read-out: Inhibition rate (%)
[5] = Homo sapiens, A498, final concentration 30 μg/ml (Table 3), read-out: Inhibition rate (%)
[6] = Homo sapiens, A498, final concentration 30 μg/ml, 48 h, read-out: Inhibition rate (%)
[7] = final concentration 30 μg/ml, 48 h

| Compound | Tumor inhibition rate (%) [1] | Body weight 15 d after administration [1] | Tumor weight [1] | Body weight Before administration [1] | Observation of cell morphology / effect on cell growth ([2]; 48 h) | inhibition at 15 µg/mL [2, 4] | inhibition at 30 µg/mL [2, 5] | inhibition at 30 µg/mL [2, 6] | inhibition at 60 µg/mL [2, 4] | OD value (average) [2, 7] | Observation of cell morphology / effect on cell growth [3] | Inhibition rate (%) [3] | inhibition at 30 µg/mL [3] | OD value (average) [3] | inhibition at 0.1 µg/mL ([2]; Homo sapiens, A498, final concentration 0.1 μg/ml, read-out: Inhibition rate (%)) | inhibition at 0.5 µg/mL ([2]; Homo sapiens, A498, final concentration 0.5 μg/ml, read-out: Inhibition rate (%)) | inhibition at 1 µg/mL ([2]; Homo sapiens, A498, final concentration 1 μg/ml, read-out: Inhibition rate (%)) |
| --- | --- | --- | --- | --- | --- | --- | --- | --- | --- | --- | --- | --- | --- | --- | --- | --- | --- |
| O=C(/C=C/c1ccc(O)c(O)c1)O[C@@H]1C[C@](O)(C(=O)O)C[C@@H](O)[C@H]1O [Chlorogenic acid, chlorogenic acid] | 33.33% | 27.3 ± 1.19 | 1.8 ± 0.14 g | 19.6 ± 0.98 | certain effect on cell growth | 15.7% | 37.2% | 36.5% | 61.3% | 1.494 | certain effect on cell growth | 37.29% | 38.5% | 1.248 |  |  |  |
| O=C(/C=C/c1ccc(O)cc1)O[C@@H]1C[C@](O)(C(=O)O)C[C@@H](O)[C@H]1O [Coumaroylquinic acid, coumaroylquinic acid] | 7.41% | 25.2 ± 1.42 | 2.5 ± 0.19 g | 19.4 ± 1.17 | almost had no effect on cell growth | 1.92% | 4.85% | 3.13% | 7.13% | 2.280 | almost had no effect on cell growth |  | 5.85% | 1.909 |  |  |  |
| CNC(=O)c1cc(Oc2ccc(NC(=O)Nc3ccc(Cl)c(C(F)(F)F)c3)cc2)ccn1 [Sorafenib, sorafenib, reference compound] |  |  |  |  |  |  |  |  |  |  |  |  |  |  | 5.36% | 13.8% | 29.4% |
| Cinnamoylquinic acid [reference compound] |  |  |  |  |  |  |  |  |  |  |  | 13.94% |  |  |  |  |  |
| Feruloylquinic acid [reference compound] |  |  |  |  |  |  |  |  |  |  |  | 10.42% |  |  |  |  |  |
